From PMC4230215, “Lipolytic Potential of Aspergillus japonicus LAB01: Production, Partial Purification, and Characterisation of an Extracellular Lipase” (BioMed Research International, 2014)

Test system: T1, extracellular lipase from A. japonicus LAB01
T1 construct: about 25 kDa on SDS-PAGE
Assay: spectrophotometric p-nitrophenol release at […] nm, Michaelis-Menten hyperbola regression
Assay type: biochemical, Aspergillus japonicus
Conditions: Tris-HCl pH 8.0, 37 °C, Triton X-100 and gum arabic emulsion, 2-propanol; 0-1.4 mM substrate; partially purified enzyme; read-out: apparent KM

CCCCCCCCCCCCCCCC(=O)Oc1ccc([N+](=O)[O-])cc1 [p-NPP, p-nitrophenyl palmitate]
Km: 130 µM
